This is an account of results in patent US8829014B2, “Thiazole and thiophene analogues, and their use in treating autoimmune diseases and cancers” (Board of Supervisors of Louisiana State University and …, priority 2006, dated 2014).

The structures appear in SMILES notation.

One assay has as its system AP-1. The experiment in a line: PMA-induced AP-1 luciferase expression in HEK cells. The format is cell-based. The following applies: luciferase in HEK/AP-1 cells, as described in Example 398; for inhibition at 1 µM: AP1, 1 uM.
The next assay has as its system NF-κB. The experiment in a line: TNF-α-induced NF-κB-dependent luciferase expression in HEK cells. The format is cell-based. The following applies: luciferase in HEK/NF-κB cells, as described in Example 398; for inhibition at 1 µM: Homo sapiens, HEK293, 1 uM, read-out: NFkB inhibition @ 1 uM.
The test system of the next assay is carageenan-induced edema. The experiment in a line: Carrageenan-induced rat paw edema test (anti-inflammatory activity). The format is in vivo, Sprague-Dawley rats. The essentials: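 Sprague-Dawley rats (male and female, 150-250 g), fasted 18 h, given compound orally at 50 mg/kg in 0.1% sodium CMC (alternatively i.v., s.c. or i.p.). 1% carrageenan injected sub-plantar in right hind paw 1 h later. Paw displacement read again 3 h later; % protection = [(Control−Test)/Control]×100 versus saline control.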
On the technique in general: In the carrageenan paw model, swelling and tenderness develop within hours.

Setting [1] is: Rattus norvegicus, po, 3 h, rat paw edema, 50 mg/kg, reading 3 hours after carrageenan; [(Control−Test)/Control]×100%; read-out: % Protection P.
[2] abbreviates: rat paw edema, 50 mg/kg, reading 3 hours after carrageenan; [(Control−Test)/Control]×100%; 50 mg/kg.

As a reminder, the inhibition is the relative decrease from the control value, in per cent. As to `CC(=O)Nc1ccc(-c2cc(C(=O)c3ccc(Cl)cc3Cl)sc2N2CCOCC2)cc1` [Example 70, N-{4-[5-(2,4-Dichloro-benzoyl)-2-morpholin-4-yl-thiophene-3-yl]-phenyl}-acetamide], the inhibition at 1 µM came to 54% in the assay with AP-1 and 18.6% with NF-κB. The inhibition in vivo at 50 mg/kg in the assay with carageenan-induced edema (setting [1]) amounted to 39.2%.

For the compound `CSc1ccc(C(=O)c2cc(-c3ccc(NC(C)=O)cc3)c(N3CCOCC3)s2)cc1` [Example 71, N-{4-[5-(4-Methansulfanyl-benzoyl)-2-morpholin-4-yl-thiophene-3-yl]-phenyl}-acetamide], in the assay on AP-1, the “AP-1 inhibition @ 1 uM” value was 27.75. In addition, the “NFkB inhibition @ 1 uM” value with NF-κB is listed as 7.6. Besides, in the assay on carageenan-induced edema (rat paw edema, 50 mg/kg, reading 3 hours after carrageenan; [(Control−Test)/Control]×100%), the “% Protection P” value amounted to 2.5%.

As for `CC(=O)Nc1ccc(C(=O)c2cc(-c3ccc(NC(C)=O)cc3)c(N3CCOCC3)s2)cc1` [Example 73, N-{4-[5-(4-acetylamino-benzoyl)-2-morpholin-4-yl-thiophene-3-yl]-phenyl}-acetamide], the inhibition at 1 µM in the assay with AP-1 is 19.9%; with NF-κB, -28.6%. Also, in the assay on carageenan-induced edema (setting [1]), the inhibition in vivo at 50 mg/kg is -23.5%.

For `CC(=O)Nc1ccc(-c2cc(C(=O)c3ccncc3)sc2N2CCOCC2)cc1` [Example 75, N-{4-[2-Morpholin-4-yl-5-(pyridine-4-carbonyl)-thiophene-3-yl]-phenyl}-acetamide], the inhibition at 1 µM in the assay with AP-1 worked out at 45.5%; in the assay on NF-κB, 17.4%. In addition, in the assay with carageenan-induced edema (setting [1]), the inhibition in vivo at 50 mg/kg is 45.7%.

For the compound `COc1ccc(C(=O)c2cc(-c3ccc(Cl)cc3)c(N3CCOCC3)s2)cc1` [Example 80, [4-(4-Chloro-phenyl)-5-morpholin-4-yl-thiophen-2-yl]-(4-methoxy-phenyl)-methanone], the inhibition at 1 µM with AP-1 is 30.6%; with NF-κB it was -2.91%. For the same compound, the inhibition in vivo at 50 mg/kg in the assay with carageenan-induced edema (setting [1]) amounted to 18.9%.

Take `O=C(c1cc(-c2ccc(Cl)cc2)c(N2CCOCC2)s1)c1ccc(Cl)cc1Cl` [Example 82, [4-(4-Chloro-phenyl)-5-morpholin-4-yl-thiophen-2-yl]-(2,4-dichloro-phenyl)-methanone]: the inhibition at 1 µM in the assay on AP-1 turned out to be 34.3%; in the assay on NF-κB, 0.6%. The inhibition in vivo at 50 mg/kg with carageenan-induced edema (setting [1]) was determined as 22.8%.

In the case of `CS(=O)(=O)c1ccc(C(=O)c2cc(-c3ccc(Cl)cc3)c(N3CCOCC3)s2)cc1` [Example 84, [4-(4-Chloro-phenyl)-5-morpholin-4-yl-thiophen-2-yl]-(4-methansulfonyl-phenyl)-methanone], the figures for the inhibition at 1 µM with AP-1 and in the assay on NF-κB were 30.9% and -11.7%, respectively. The inhibition in vivo at 50 mg/kg in the assay on carageenan-induced edema (setting [1]) stood at 23%.

Consider `O=C(c1cccnc1)c1cc(-c2ccc(Cl)cc2)c(N2CCOCC2)s1` [Example 86, [4-(4-Chloro-phenyl)-5-morpholin-4-yl-thiophen-2-yl]-pyridin-3-yl-methanone], for which the inhibition at 1 µM with AP-1 amounted to 15.2%; in the assay on NF-κB, 3.6%. Moreover, the inhibition in vivo at 50 mg/kg in the assay on carageenan-induced edema (setting [1]) was found to be 28.1%.

On to `Cc1ccc(C(=O)c2cc(-c3cccnc3)c(N3CCOCC3)s2)cc1` [Example 91, (5-Morpholin-4-yl-4-pyridin-3-yl-thiophene-2-yl)-p-tolyl-methanone], for which the inhibition at 1 µM was 49% in the assay with AP-1 and 1.28% in the assay with NF-κB. For the same compound, the inhibition in vivo at 50 mg/kg in the assay on carageenan-induced edema (setting [1]) was 25.3%.

`CSc1ccc(C(=O)c2cc(-c3cccnc3)c(N3CCOCC3)s2)cc1` [Example 95, (4-Methylsulfanyl-phenyl)-(5-morpholin-4-yl-4-pyridin-3-yl-thiophen-2-yl)-methanone]: the “AP-1 inhibition @ 1 uM” value with AP-1 is recorded as 64.02. The “NFkB inhibition @ 1 uM” value in the assay with NF-κB is on record as 11.24. Further, the “% Protection P” value in the assay with carageenan-induced edema (setting [2]) is 42.44%.

As for `CS(=O)(=O)c1ccc(C(=O)c2cc(-c3cccnc3)c(N3CCOCC3)s2)cc1` [Example 96, (4-Methylsulfonyl-phenyl)-(5-morpholin-4-yl-4-pyridin-3-yl-thiophen-2-yl)-methanone], the values for the inhibition at 1 µM in the assay on AP-1 and in the assay on NF-κB were 37.7% and -12.9%, respectively. Besides, the inhibition in vivo at 50 mg/kg in the assay with carageenan-induced edema (setting [1]) is 46.8%.

Turning to `COc1c(C)cc(-c2cc(-c3ccncc3)c(N3CCOCC3)s2)nc1C` [Example 100, 4-[5-(5-Methoxy-4,6-dimethyl-pyridin-2-yl)-3-pyridin-4-yl-thiophen-2-yl]-morpholine], the results for the inhibition at 1 µM in the assay on AP-1 and with NF-κB were 47.4% and 5.21%, respectively. The inhibition in vivo at 50 mg/kg in the assay on carageenan-induced edema (setting [1]) was 54.2%.

As for `Cc1ccc(C(=O)c2cc(-c3ccncc3)c(N3CCOCC3)s2)cc1` [Example 103, (5-Morpholin-4-yl-4-pyridin-4-yl-thiophene-2-yl)-p-tolyl-methanone], the inhibition at 1 µM in the assay on AP-1 came out at 4.35%; in the assay with NF-κB, 10.3%. Besides, the inhibition in vivo at 50 mg/kg with carageenan-induced edema (setting [1]) is -30.8%.

Regarding `CSc1ccc(C(=O)c2cc(-c3cccnc3)c(N3CCOCC3)s2)cc1` [Example 107, (4-Methylsulfanyl-phenyl)-(5-morpholin-4-yl-4-pyridin-3-yl-thiophen-2-yl)-methanone], the “AP-1 inhibition @ 1 uM” value in the assay on AP-1 is 19.05. For the same compound, the “NFkB inhibition @ 1 uM” value in the assay on NF-κB was found to be 1.69. Besides, the “% Protection P” value in the assay with carageenan-induced edema (setting [2]) is on record as −42.44%.

`CS(=O)(=O)c1ccc(C(=O)c2cc(-c3ccncc3)c(N3CCOCC3)s2)cc1` [Example 108, (4-Methylsulfonyl-phenyl)-(5-morpholin-4-yl-4-pyridin-4-yl-thiophen-2-yl)-methanone]: the results for the inhibition at 1 µM in the assay on AP-1 and with NF-κB were 46.6% and -8.31%, respectively. Besides, the inhibition in vivo at 50 mg/kg in the assay on carageenan-induced edema (setting [1]) turned out to be 54.2%.

On to `COc1ccc(C(=O)c2sc(Nc3ccccc3)nc2NC(=O)Nc2ccc(F)cc2)cc1` [Example 117, 1-(4-Fluoro-phenyl)-3-[5-(4-methoxy-benzoyl)-2-phenylamino-thiazol-4-yl]-urea], for which the inhibition at 1 µM is 51% in the assay on AP-1 and 22.1% with NF-κB. For the same compound, in the assay with carageenan-induced edema (setting [2]), the “% Protection P” value worked out at 58.62%.

In the case of `CNc1nc(C)c(C(=O)c2sc(NC)nc2C)s1` [Example 118, Bis-(4-methyl-2-methylamino-thiazole-5-yl)-methanone], the values for the inhibition at 1 µM with AP-1 and in the assay on NF-κB were 33.4% and 8.84%, respectively. In addition, the inhibition in vivo at 50 mg/kg in the assay with carageenan-induced edema (setting [1]) worked out at 40.9%.

With `Cc1nc(Nc2ccccc2)sc1C(=O)c1sc(Nc2ccccc2)nc1C` [Example 119, Bis-(4-methyl-2-phenylamino-thiazole-5-yl)-methanone], the inhibition at 1 µM with AP-1 is 26%; in the assay with NF-κB it was 8.39%. In addition, in the assay on carageenan-induced edema (setting [1]), the inhibition in vivo at 50 mg/kg amounted to 45.5%.

As to `Cc1nc(Nc2ccc(Cl)cc2)sc1C(=O)c1sc(Nc2ccc(Cl)cc2)nc1C` [Example 120, Bis-[2-(4-Chloro-phenylamino)-4-methyl-thiazole-5-yl]-methanone], the figures for the inhibition at 1 µM with AP-1 and with NF-κB were 76.2% and 20.3%, respectively. For the same compound, the inhibition in vivo at 50 mg/kg with carageenan-induced edema (setting [1]) was determined as 64.6%.

`CCOC(=O)Nc1nc(C)c(C(=O)c2sc(NC(=O)OCC)nc2C)s1` [Example 124, Diethyl[carbonyl-bis(4-methyl-1,3-thiazole-5,2-diyl)]biscarbamate]: the inhibition at 1 µM is 71.6% in the assay on AP-1 and 20.1% with NF-κB. Besides, the inhibition in vivo at 50 mg/kg in the assay on carageenan-induced edema (setting [1]) turned out to be 65.7%.

`CNc1nc(-c2ccccc2)c(C(=O)c2sc(NC)nc2-c2ccccc2)s1` [Example 125, Bis-(2-methylamino-4-Phenyl-thiazole-5-yl)-methanone]: the figures for the inhibition at 1 µM in the assay on AP-1 and in the assay on NF-κB were 23.8% and 27.1%, respectively. Also, the inhibition in vivo at 50 mg/kg in the assay on carageenan-induced edema (setting [1]) was 23.2%.

For `COC(=O)Nc1nc(Cc2ccccc2)c(C(=O)c2sc(NC(=O)OC)nc2Cc2ccccc2)s1` [Example 137, Dimethyl[carbonyl-bis(4-benzyl-1,3-thiazole-5,2-diyl)]biscarbamate], the inhibition at 1 µM in the assay with AP-1 worked out at 51.3%; in the assay with NF-κB, 7.69%. In addition, in the assay on carageenan-induced edema (setting [1]), the inhibition in vivo at 50 mg/kg was determined as 47.2%.

On to `CCOC(=O)Nc1nc(Cc2ccccc2)c(C(=O)c2sc(NC(=O)OCC)nc2Cc2ccccc2)s1` [Example 138, Diethyl[carbonyl-bis(4-benzyl-1,3-thiazole-5,2-diyl)]biscarbamate], for which the inhibition at 1 µM with AP-1 was determined as 83.6%; in the assay with NF-κB, 55.6%. In addition, the inhibition in vivo at 50 mg/kg in the assay with carageenan-induced edema (setting [1]) is 88.9%.

Turning to `O=C(CCl)Nc1ccccc1C(=O)O` [Example 139, 2-(2-Chloroacetylamino) benzoic acid], the inhibition at 1 µM in the assay with AP-1 was 74.4%; with NF-κB it was 62.6%. Besides, the inhibition in vivo at 50 mg/kg in the assay on carageenan-induced edema (setting [1]) came to 69.6%.

`O=c1c2ccccc2nc(-c2cc(-c3ccccc3)c(N3CCOCC3)s2)n1-c1ccccc1` [Example 272, 2-(5-Morpholin-4-yl-4-phenyl-thiophene-2-yl)-3-phenyl-3H-quinazolin-4-one]: the inhibition at 1 µM was 11% with AP-1 and -2% in the assay on NF-κB. In the assay with carageenan-induced edema (setting [1]), the inhibition in vivo at 50 mg/kg stood at 30%.

Turning to `O=c1c2ccccc2nc(-c2cc(-c3ccc(Cl)cc3)c(N3CCOCC3)s2)n1-c1ccccc1` [Example 273, 2-[4-(4-Chloro-phenyl)-5-morpholin-4-yl-thiophen-2-yl]-3-phenyl-3H-quinazolin-4-one], the inhibition at 1 µM in the assay on AP-1 is -17%; in the assay on NF-κB, -35%. The inhibition in vivo at 50 mg/kg in the assay on carageenan-induced edema (setting [1]) was 0%.

Turning to `CS(=O)(=O)c1ccc(-c2cc(-c3nc4ccccc4c(=O)n3-c3ccccc3)sc2N2CCOCC2)cc1` [Example 275, 2-[4-(4-Methanesulfonyl-phenyl)-5-morpholin-4-yl-thiophen-2-yl]-3-phenyl-3H-quinazolin-4-one], the inhibition at 1 µM came to 28% in the assay with AP-1 and 9% in the assay with NF-κB. For the same compound, in the assay with carageenan-induced edema (setting [1]), the inhibition in vivo at 50 mg/kg worked out at 25%.
